One series relates to RPMI-8226. The series can be described thus: Growth inhibition of MM cell line RPMI-8226. In kind it is cell-based, human. Conditions: RPMI-8226 compared to NCI-H929. As to the method: (§1) Viability was estimated according to the following formula: […]
(§2) Control cells were cultured in DMSO.

Series [1] concerns NCI-H929. In words: Annexin V / PI flow cytometry apoptosis assay, NCI-H929. In kind it is cell-based, human. Conditions: for induction of apoptosis at 18 h: NCI-H929, 18 h, MAL3-101 10 μM, MG-132 0.1 μM, alone or combined. As to the method: Each experiment was repeated at least three times. Every experimental condition was repeated at least in triplicate wells for every experiment. For cell death assays, 10^6 MM cells were exposed to media or drug for the indicated incubation periods, washed with 1× phosphate-buffered saline (PBS), pH 7.4 (Invitrogen) and resuspended in 500 μL, binding buffer (Annexin V-PI detection kit (Immunotech/Beckman Coulter, Fullerton, Calif.), containing 1 μL, annexin V-fluorescein isothiocyanate (FITC) stock and 5 μL 20 μg/mL […] (PI) to determinate the phosphatidylserine (PS) exposure on the outer plasma membrane. After incubation for 15 minutes at room temperature in the dark, the specimens were quantified by dual-color flow cytometry, acquiring 10,000 events. Cells that were Annexin V-FITC+(with translocation of phosphatidylserine from the inner to the outer leaflet of the plasma membrane) and PI− (with intact cellular membrane) were considered as early apoptotic cells.
Apoptosis induction in control (DMSO-treated) or inhibitor treated cells was determined using an Annexin-V-FLUOS Staining Kit according to the manufacturer's instructions (Roche, Indianapolis, Ind.). Briefly, cells (1×10^5) were harvested at indicated time points after treatment, and Annexin V-fluorescein isothiocyanate (FITC) and propidium iodide (PI) were added to individual samples and incubated for 30 min in a dark environment. Fluorescence was analyzed by a FACSort flow cytometer (BD Biosciences, San Jose, Calif.) by acquiring 10,000 events per sample.

A further series relates to U266. In words: Growth inhibition of MM cell line U266. It is filed as cell-based, human. Conditions: U266 compared to NCI-H929. As to the method:
as §1, §2

The test system of series [2] is normal control BM, PBMC, and EPC populations. The series can be described thus: MTS survival assay, normal control cells. It is filed as cell-based. Conditions: FIG. 36D. As to the method:
MAL3-101 (the structure is shown as the final product in FIG. 12, in FIG. 13, and in FIG. 25B), the proteasome inhibitor MG-132 (A.G. Scientific, San Diego, Calif.) and the Hsp90 inhibitor 17-allylamino-17-demethoxygeldanamycin (17-AAG) (Calbiochem/EMD Biosciences, San Diego, Calif.) were dissolved in dimethylsulfoxide (DMSO; Sigma-Aldrich, St. Louis, Mo.), and stored at −20° C. Final concentration of DMSO was 0.03% and this was used to treat control cells. The MM cell lines examined were NCI-H929, RPMI-8226, and U266 (ATCC, Manassas, Va.). Normal peripheral blood mononuclear cells (PBMC) and bone marrow (BM) cells were obtained from StemCell Technologies (Vancouver, Canada). Primary MM cells and EPCs were from BM aspirates of newly-diagnosed patients following informed consent. MM cells were enriched to >95% CD138^+ cells by positive selection, using anti-CD138 MACS Microbeads according to the manufacturer's instructions (Miltenyi, San Diego, Calif.). […]
Background: Tetrazolium assays rely on reduction of a dye to a coloured formazan, in cell work by metabolically active cells.

For the next series, the system named is BiP. In words: Levels of ER lumenal chaperone BiP in NCI-H929. It is filed as cell-based, human. Conditions: NCI-H929, data not shown.
Series [3] relates to NCI-H929. The series can be described thus: Western immunoblotting of caspase-3 and PARP cleavage, NCI-H929. In kind it is cell-based, human. Conditions: NCI-H929, 10 μM, time course. As to the method: Whole-cell lysates were prepared using the Mammalian Cell Lysis Kit (Sigma-Aldrich) and analyzed by Western blot analysis as described in the Zhang reference, cited supra, which is incorporated herein by reference. Equal amounts of protein were separated by SDS-PAGE and electrotransferred onto a nylon membrane. Primary antibodies to detect caspase-3 (Cell Signaling Technology, Danvers, Mass.), poly (ADP-ribose) polymerase (PARP; Abcam, Cambridge, Mass.), and β-actin (Sigma Aldrich) were used along with a HP-conjugated goat-anti-mouse polyclonal secondary antibody (BD Biosciences, Franklin Lakes, N.J.). Enhanced chemiluminescence (ECL) substrate (Pierce Biotechnology, Rockford, Ill.) was used for antibody detection.
Background: Immunoblotting shows a protein as a band on a membrane.

Another series has as its system XBP-1 mRNA splicing. In words: RT-PCR analysis of XBP-1 mRNA splicing (UPR) in NCI-H929. Conditions: for XBP-1 mRNA splicing at early time points: NCI-H929, early time points (4 h), concentrations that gave synergistic cytotoxicity. It is filed as cell-based, human. As to the method: Total RNA was prepared from NCI-H929 and HEK293 cells using TRIzol reagent (Invitrogen, Carlsbad, Calif.) following exposure to MAL3-101, MG-132, and 17-AAG alone and in combination at the indicated time points. Tunicamycin was used at varying concentrations.
Total RNAs were used for the first-strand synthesis with the Superscript reverse transcriptase (Invitrogen, Carlsbad, Calif.). PCR primers (5′-[…]-3′ [Seq. ID No. 1] and 5′-[…]-3′ [Seq. ID No. 2]) encompassing the missing sequences in XPB-1s were used for the PCR amplification with AmpliTaq Gold polymerase (Applied Biosystem, Foster City, Calif.) with a probe set spanning the spliced-out region. PCR products were separated by electrophoresis on a 3% agarose gel (Agarose-1000, Invitrogen) and visualized them by ethidium bromide staining to assess the degree of X-box binding protein-1 unspliced (XBP-1u, ˜280 bp) and spliced (XBP-1s, ˜265 bp) mRNA.
Unspliced (XBP-1u, 285 bp) and spliced (XBP-1s, 259 bp) XBP-1 mRNA levels of treated NCI-H929 were determined by PCR amplification of total RNA that was reverse transcribed by SuperScript Reverse Transcriptase (Invitrogen, Carlsbad, Calif.). PCR primers (5′-[…]-3′ [Seq. ID No. 1] and 5′-[…]-3′ [Seq. ID No. 2]), which flank the 26-nt intron of XBP1 mRNA, were used for PCR amplification with Ex Taq polymerase (Takara Bio, Shiga, Japan).

The structures appear in SMILES notation. Entries after “also recorded” stand apart in the source; their conditions may differ. Residues, ends and D or L forms follow the SMILES beside them. *: point of attachment. Cbz = O=C(OCc1ccccc1)*

With `CCCCCCN(C(=O)CCCCCN1C(=O)NC(c2ccc(-c3ccccc3)cc2)C(C(=O)OCc2ccccc2)=C1C)C(C(=O)NCCCC)c1ccc(OCC(=O)OC)c(C(=O)OC)c1` (stereo not drawn) [MAL3-101], the “sensitivity to MAL3-101-induced growth inhibition” value in the series with RPMI-8226 and with U266 was “less sensitive” throughout. Further, the apoptosis over time result with NCI-H929 [1] (NCI-H929, 10 μM, FACS) was “time-dependent increase in apoptosis”. In the series with NCI-H929 [1], the “induction of apoptosis at 18 h” value is recorded as “neither drug alone was effective in inducing apoptosis”. For the same compound, in series [2], the “cytotoxicity in normal control cells” value is “lack of cytotoxicity; also recorded: lack of sensitivity”. The “levels of BiP” value with BiP was “did not change”. For the same compound, the “cleavage of caspase-3 and PARP” value in the series on NCI-H929 [3] is “time-dependent increase in the cleavage of caspase-3 and PARP”. For the same compound, in the series with XBP-1 mRNA splicing (NCI-H929, 30 μM, after 24 h of culture), the “XBP-1 mRNA splicing at high concentration” value is given as “minimal XBP-1 mRNA splicing occurred”. Moreover, the “XBP-1 mRNA splicing at early time points” value in the series on XBP-1 mRNA splicing is given as “there does not appear to be an effect; also recorded: no XBP-1 mRNA splicing was observed”.
As for `CC(C)C[C@@H](C=O)NC(=O)[C@H](CC(C)C)NC(=O)[C@H](CC(C)C)NC(=O)OCc1ccccc1` [MG-132, reference compound] (Cbz-Leu-Leu-Leu-aldehyde), the “induction of apoptosis at 18 h” value in the series on NCI-H929 [1] is recorded as “neither drug alone was effective in inducing apoptosis”. For the same compound, in the series with BiP, the “levels of BiP” value is on record as “did not change”. Moreover, in the series on XBP-1 mRNA splicing, the “XBP-1 mRNA splicing at early time points” value is recorded as “no XBP-1 mRNA splicing was observed”.

Values taken from patent US8754094B2, “Methods for heat shock protein dependent cancer treatment” (The Research Foundation of State University of New York, priority 2007, dated 2014).
